# Experimental data from US9931324B2, “Indolizine derivatives and their use in neurodegenerative diseases” (Merck Patent GmbH, priority 2014, dated 2018).
# Tests used:
# [1] = target: T1, P2X7 (Homo sapiens, UniProt Q99572); assay: Pore permeation assay (YO PRO dye uptake, BzATP-induced); type: cell-based; set-up: expressed in transfected cells; host or cells: HEK293; settings: HEK293 transfected with human P2X7 receptor, BzATP 10 uM, read-out: hP2X7 IC50
# T1 sequence (Q99572 1-595): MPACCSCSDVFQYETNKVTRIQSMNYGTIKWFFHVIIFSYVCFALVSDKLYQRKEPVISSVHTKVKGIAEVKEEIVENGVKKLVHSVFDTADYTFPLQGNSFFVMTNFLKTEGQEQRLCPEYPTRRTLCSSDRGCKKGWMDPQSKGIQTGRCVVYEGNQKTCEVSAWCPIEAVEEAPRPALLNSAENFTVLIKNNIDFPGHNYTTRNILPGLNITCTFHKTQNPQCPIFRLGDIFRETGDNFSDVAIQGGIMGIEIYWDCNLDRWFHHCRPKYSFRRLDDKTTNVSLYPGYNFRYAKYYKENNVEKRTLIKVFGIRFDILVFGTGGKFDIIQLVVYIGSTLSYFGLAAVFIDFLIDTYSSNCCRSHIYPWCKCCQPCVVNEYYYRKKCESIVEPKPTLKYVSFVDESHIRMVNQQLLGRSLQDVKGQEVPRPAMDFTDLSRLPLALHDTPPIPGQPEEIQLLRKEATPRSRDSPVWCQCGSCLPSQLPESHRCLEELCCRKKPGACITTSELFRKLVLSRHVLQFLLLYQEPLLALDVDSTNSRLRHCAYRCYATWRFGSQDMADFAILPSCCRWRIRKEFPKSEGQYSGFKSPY
# Method: Agonist-induced pore formation was determined by measuring cellular uptake of YO PRO fluorescence dye in HEK293 transfected with human P2X7 receptor. A HEK293 cell over expressing human P2X7 was harvested using HQTase reagent to detach the cells from T75 cm flask. The harvested cells are centrifuged @1200 rpm for 5 min at room temperature. The viability of cells was determined by Trypan blue dye and the cells are plated @10,000 cell/well in 50 ul volume in a 384W BD Poly lysine coated plate and incubated overnight at 37 C. After overnight incubation, the culture medium was replaced with 35 ul/well assay buffer (5 mM KCl, 0.1 mM CaCl2, 5 mM Glucose, 10 mM HEPES buffer pH7.4 containing 125 mM NaCl. The serial dilution of compounds was performed using Bravo liquid handling instrument and the compounds were added using Bravo to the cell assay plate starting at 2.5 uM with three dilutions for 10 points. The positive control inhibitor compound was added to column 23. The plate was shaken slowly on a plate shaker for 10 seconds. The cells were incubated with the compound for 20 minutes at room temperature. After the incubation period, YO PRO dye (1 uM) along with BzATP (10 uM) were added to cells at 10 ul/well. The plate was centrifuged at 1000 rpm for 5 seconds and incubated at room temperature for 30 minutes. The uptake of YO PRO dye into the cells was measured using Envision Fluorescence plate reader instrument (Perkin Elmer).
# [2] = target: T1, P2X7; assay: IL-1β release assay in THP-1 cells (sandwich ELISA, BzATP-stimulated); type: cell-based; set-up: endogenous in cells; host or cells: THP-1 cells (PMA-differentiated, LPS-primed); settings: LPS primed, 0.8 mM BzATP, mature IL-1β release, read-out: hTHP-1/IL-ib IC50
# Method: IL-1β release assay: The activation of P2X7 by ATP leads to a fast transient activation of cells resulting in influx of Ca^2+ followed by conversion of pro-IL-1β to active IL-1β. The functional activity of P2X7 compounds was measured by the release of mature IL-1β in the culture medium of THP-1 cells, detected by sandwich ELISA. Cells were maintained in complete growth medium (RPMI 1640+10% HI-FCS+2 mM L-glutamine+1× PS). […] THP-1 cells were harvested from the flask in 50 ml by centrifugation for 3 min at 100 g. The cells were resuspended to 2×10^5 cells/ml in medium supplemented with 0.5 μM PMA and incubated. The cells were washed and resuspended to 1.5×10^5 cells/ml in medium complemented with 10 ng/ml LPS, and the cells were primed for 4 h at 37° C., 5% CO2. After addition of 20 μL of prediluted test compounds, blank, standard and control reagents, cells were incubated for a further 20 min at 37° C. and stimulated with 0.8 mM BzATP for 30 minutes. The cells were centrifuged, supernatant was collected and the presence of mature IL-1β was detected using Dual human IL-1b kit following manufacturer's instruction. The tetrahydrobenzodiazepine analogs effectively modulated the activity of P2X7 in the cells as measured by the levels of pro-inflammatory cytokine IL-1β, which is released by the activation of P2X7 receptor.
IC50 [1] [nM],IC50 [2] [nM],SMILES
10 to 100,10 to 100,"O=C(NCC1CCCCCC1)c1cc(CCO)n2cccc(Cl)c12 [Compound 6, 8-chloro-N-(cycloheptylmethyl)-3-(2-hydroxyethyl)indolizine-1-Carboxamide]"
10 to 100,10 to 100,"CC1CC(CNC(=O)c2cc(CCO)n3cccc(Cl)c23)CC(F)(F)C1 (stereo not drawn) [Compound 36, 8-chloro-N-((3,3-difluoro-5-methylcyclohexyl)methyl)-3-(2-hydroxyethyl)indolizine-1-carboxamide]"
10 to 100,101 to 500,"O=C(NCC1(O)CCC(F)(F)CC1)c1cc(C2CCC2)n2cccc(Cl)c12 [Compound 12, 8-chloro-3-cyclobutyl-N-((4,4-difluoro-1-hydroxycyclohexyl)methyl) indolizine-1-carboxamide]"
10 to 100,10 to 100,"COCCc1cc(C(=O)NCC2(O)CCC(F)(F)CC2)c2c(Cl)cccn12 [Compound 53, 8-chloro-N-((4,4-difluoro-1-hydroxycyclohexyl)methyl)-3-(2-methoxyethyl)indolizine-1-carboxamide]"
10 to 100,10 to 100,COCCc1cc(C(=O)NC[C@@]2(O)CCC[C@@H](C)C2)c2c(Cl)cccn12 [Compound 18]
10 to 100,10 to 100,"COCCc1cc(C(=O)NCC2CC(C)CC(F)(F)C2)c2c(Cl)cccn12 (stereo not drawn) [Compound 13, 8-chloro-N-((3,3-difluoro-5-methylcyclohexyl)methyl)-3-(2-methoxyethyl)indolizine-1-carboxamide]"
10 to 100,10 to 100,CCOCCc1cc(C(=O)NC[C@@]2(O)CCC[C@@H](C)C2)c2c(Cl)cccn12 [Compound 73]
< 10,10 to 100,"COCCc1cc(C(=O)NCC2CCCC3(CC3)C2)c2c(Cl)cccn12 (stereo not drawn) [Compound 2, 8-chloro-3-(2-methoxyethyl)-N-(spiro[2.5]octan-5-ylmethyl)indolizine-1-carboxamide]"
10 to 100,10 to 100,"O=C(NCC1(O)CCC(F)(F)CC1)c1cc(C2CCCO2)n2cccc(Cl)c12 (stereo not drawn) [Compound 48, 8-Chloro-3-(tetrahydro-furan-2-yl)-indolizine-1-carboxylic Acid (4,4-difluoro-1-hydroxycyclohexyl methyl)-amide]"
101 to 500,101 to 500,"COCCc1cc(C(=O)NCC2(O)CCCC3(CC3)C2)c2c(Cl)cccn12 (stereo not drawn) [Compound 29, 8-chloro-N-((5-hydroxyspiro[2.5]octan-5-yl)methyl)-3-(2-methoxyethyl) indolizine-1-carboxamide]"
10 to 100,10 to 100,"O=C(NC[C@]1(O)CCCC(F)(F)C1)c1cc(C2CCOC2)n2cccc(Cl)c12 (stereo partly drawn) [Compound 67, 8-chloro-N—(((S)-3,3-difluoro-1-hydroxycyclohexyl)methyl)-3-(tetrahydrofuran-3-yl)indolizine-1-carboxamide]"
101 to 500,10 to 100,"CC1CC(O)(CNC(=O)c2cc(C3CCOCC3)n3cccc(Cl)c23)CCC1(F)F (stereo not drawn) [Compound 41, 8-chloro-N-((4,4-difluoro-1-hydroxy-3-methylcyclohexyl)methyl)-3-(tetrahydro-2H-pyran-4-yl)indolizine-1-carboxamide]"
10 to 100,101 to 500,"O=C(NCC1CCCC(F)(F)C1)c1cc(C2CCOC2)n2cccc(Cl)c12 (stereo not drawn) [Compound 39, 8-Chloro-3-(tetrahydro-furan-3-yl)-indolizine-1-carboxylic Acid (3,3-difluoro-cyclohexyl methyl)-amide]"
10 to 100,10 to 100,"O=C(NCC1CCC(F)(F)CC1)c1cc(C2=COCC2)n2cccc(Cl)c12 [Compound 14, 8-chloro-N-((4,4-difluorocyclohexyl)methyl)-3-(4,5-dihydrofuran-3-yl)indolizine-1-carboxamide]"
10 to 100,101 to 500,"O=C(NCC1CCCC(F)(F)C1)c1cc(CCO)n2cccc(Cl)c12 (stereo not drawn) [Compound 45, 8-chloro-N-((3,3-difluorocyclohexyl)methyl)-3-(2-hydroxyethyl)indolizine-1-carboxamide]"
